Results on two compounds are retold here after patent publication US4559325A, “Purified antineoplaston fractions and methods of treating neoplastic disease” (priority 1984, dated 1985).

A short description of data set [1]: Acute toxicity studies in mice. The settings on record: mouse, in vivo, ip.
Method: After a week, a select number of the mice were sacrificed.
Acute toxicity studies involving antineoplaston fractions A2-A5, antineoplaston A10 and degradation products were carried out in the same manner described above.
In data set [2] the test system is Rd/3 sarcoma. Conditions: rats, cited from earlier work.

Structures can show the parent of a compound that is named as a salt.

As to `O=C1CCC(NC(=O)Cc2ccccc2)C(=O)N1` (stereo not drawn) [Antineoplaston A10, 3-[N-phenylacetylaminopiperidine]-2,6-dion], the LD50 (usually the dose at which mortality reaches 50%) in data set [1] worked out at 10300 mg/kg.
As for `O=C(O)Cc1ccccc1` [sodium salt of phenylacetic acid], in data set [2] (Rd/3 sarcoma), the “enhancement of tumor growth” value is “some enhancement of tumor growth”. For the same compound, the “effect on tumor growth, Rd/3 sarcoma” value in data set [2] (inhibition) was “failed to inhibit tumor growth”.
